Source: ChEMBL document CHEMBL1125640

Assay: Hill coefficient value of the compound

Compared with `COC(=O)C1C2CC[C@H](C[C@H]1OC(=O)c1ccccc1)N2C` (stereo in doubt; 4), `COC(=O)[C@@H]1[C@@H](OC(=O)c2ccccc2)CC2CC[C@H]1N2C` is higher in Hill coefficient: 0.92 for the first, 0.95 for the second.

Compared with `COC(=O)C1C2CC[C@H](C[C@H]1OC(=O)c1ccccc1)N2C` (stereo in doubt; 3), `COC(=O)[C@@H]1[C@H]2CCC(C[C@H]1OC(=O)c1ccccc1)N2C` is lower in Hill coefficient: 2.81 for the first, 1.19 for the second.

Going from `COC(=O)[C@H]1[C@@H](OC(=O)c2ccccc2)C[C@@H]2CC[C@H]1N2C` (stereo in doubt; 1) to `COC(=O)[C@H]1[C@@H](OC(=O)c2ccccc2)CC2CC[C@H]1N2C`, the Hill coefficient rises from 0.91 to 2.6.

First: COC(=O)[C@H]1[C@@H](OC(=O)c2ccccc2)C[C@@H]2CC[C@H]1N2C (stereo in doubt; 2)
Second: COC(=O)[C@H]1[C@H]2CCC(C[C@H]1OC(=O)c1ccccc1)N2C
The Hill coefficient of the first is lower: 0.96 for the first, 1.3 for the second.
